Values quoted from earlier work, collected in patent publication US20050107425A1, “Treatment of attention defecit hyperactivity disorder” (Pfizer Inc, priority 2002, published 2005).

Legend:
[1] = clinical trials of Alzheimer's disease and attention-deficit disorders
5HT3R = biological target: T1, 5HT3R (Homo sapiens, UniProt P46098)
T1 sequence (P46098 24-478): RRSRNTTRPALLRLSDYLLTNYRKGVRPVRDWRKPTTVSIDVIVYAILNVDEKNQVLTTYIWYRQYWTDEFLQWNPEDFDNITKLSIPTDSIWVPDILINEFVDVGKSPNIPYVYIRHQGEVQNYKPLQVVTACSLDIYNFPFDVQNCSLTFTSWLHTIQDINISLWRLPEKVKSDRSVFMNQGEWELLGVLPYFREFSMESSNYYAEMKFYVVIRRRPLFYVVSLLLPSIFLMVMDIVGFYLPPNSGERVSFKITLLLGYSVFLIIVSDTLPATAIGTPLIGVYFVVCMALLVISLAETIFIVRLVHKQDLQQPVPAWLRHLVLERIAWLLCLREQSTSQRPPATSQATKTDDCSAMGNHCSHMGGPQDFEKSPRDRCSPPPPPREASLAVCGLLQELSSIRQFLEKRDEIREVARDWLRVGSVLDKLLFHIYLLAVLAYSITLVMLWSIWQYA

α7 nAChR = α7 nAChR (Homo sapiens, UniProt P36544)
Chain of α7 nAChR (P36544 23-502): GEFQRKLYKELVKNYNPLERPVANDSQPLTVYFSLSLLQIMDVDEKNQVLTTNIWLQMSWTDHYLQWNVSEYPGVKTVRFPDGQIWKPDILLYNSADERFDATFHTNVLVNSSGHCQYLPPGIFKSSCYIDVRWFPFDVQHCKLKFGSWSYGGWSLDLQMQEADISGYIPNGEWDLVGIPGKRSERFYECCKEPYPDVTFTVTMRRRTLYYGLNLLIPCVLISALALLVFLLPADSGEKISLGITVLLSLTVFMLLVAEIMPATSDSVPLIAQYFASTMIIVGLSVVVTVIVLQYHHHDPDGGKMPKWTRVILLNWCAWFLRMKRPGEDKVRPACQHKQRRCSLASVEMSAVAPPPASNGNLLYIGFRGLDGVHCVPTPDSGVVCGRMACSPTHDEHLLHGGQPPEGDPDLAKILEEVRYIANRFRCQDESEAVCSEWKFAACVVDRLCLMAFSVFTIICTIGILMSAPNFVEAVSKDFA

Cc1cc([C@@H]2CCCN2C)on1 [ABT-418]
cognition and attention in clinical trials [1]: improves cognition and attention

COc1ccc(/C=C2\CCCN=C2c2cccnc2)c(OC)c1 [GTS-21]
activity at the 5HT3R (5HT3R): little activity

Cc1nccn1CC1CCc2c(c3ccccc3n2C)C1=O (stereo not drawn) [Ondansetron]
activity at the α7 nAChR (α7 nAChR): little activity
